ChEMBL document CHEMBL1158733, “Iso-, nor-, and dinor-spiculoic acids A, polyketides from the marine sponge Plakortis zyggompha” (2005)
The source made the active and inactive calls. The calls are words filed in the database; no cut-off is given here.

How the values were obtained:
Assay type in all cases: functional
MDA-MB-231 = assay: Cytotoxicity against human MDA-MB-231 cells SRB assay
HT-29 = assay: Cytotoxicity against human HT-29 cells SRB assay
A549 = assay: Cytotoxicity against human A549 cells SRB assay

SMILES | GI50 (MDA-MB-231) [µM] | GI50 (HT-29) [µM] | GI50 (A549) [µM] | Activity (MDA-MB-231) | Activity (HT-29) | Activity (A549)
CCC1=C[C@](/C=C/c2ccccc2)(CC)[C@@](CC)(C(=O)O)[C@H]2[C@H]1[C@@H](CC)C(=O)[C@@H]2C [ISOSPICULOIC ACID A] | > 25 | 15 | 15 |  |  | 
CCC1=C[C@](/C=C/c2ccccc2)(CC)[C@@](CC)(C(=O)O)[C@H]2[C@H]1[C@@H](C)C(=O)[C@@H]2C [NOR-SPICULOIC ACID A] | > 25 | 15 | 15 |  |  | 
CC[C@@]1(/C=C/c2ccccc2)C=C(C)[C@H]2[C@@H]([C@@H](C)C(=O)[C@@H]2C)[C@]1(CC)C(=O)O |  |  |  | inactive | inactive | inactive
